Test results reported in patent publication US20230293420A1, “COSMETIC OR DERMOPHARMACEUTICAL COMPOSITION, PEPTIDE AND USE IN THE REDUCTION AND ELIMINATION OF WRINKLES AND EXPRESSION LINES” (NANOCEUTICALS LTDA, priority 2022, published 2023).
Where a SMILES comes first, the peptide text is derived from it.

Legend:
[1] = tested on: Balb/c 3T3 clone 31 cells; test: In vitro study of neutral red cytotoxicity; assay type: cell-based; settings: 24 hours incubation
Description: Evaluate the in vitro cytotoxic potential of the Giovian peptide (SEQ ID No. 1) in culture of Balb/c 3T3 clone 31 cells.
In this study, Balb.c 3T3 clone 31 cells were used, obtained from the supplier Banco de Células do Rio de Janeiro, batch 001242, maintained in cultivation with DMEM (Dulbecco's Modified Eagle's Medium) with the addition of supplements, in an oven at 37° C. and 5% of CO2, and were manipulated inside the laminar flow hood. In passage 04 after thawing, the cells were distributed in 96-well plates maintained in culture under the same conditions described.
The solutions containing the control, positive control and sample groups were applied to the cell culture, 100 μL per well in quadruplicate for each group, followed by incubation in an oven at 37° C. and 5% CO2 for 24 hours. After washing, cell viability was analyzed with the neutral red indicator, 100 μL per well.
The results were evaluated using Microsoft Excel software. The control group was normalized to 100% and the percentage of cell viability in the sample and in the positive control was calculated in relation to the control. Samples are considered cytotoxic when they have 30% or more reduction in cell viability.

[2] = Appearance of solubilized sample in cell culture medium; assay type: physicochemical; settings: 1 mg/mL in cell culture medium
[3] = tested on: myoblast cells; assay type: cell-based

CC[C@H](C)[C@H](NC(=O)[C@H](CC(C)C)NC(=O)[C@H](CCCCN)NC(=O)CNC(=O)[C@H](CC(C)C)NC(=O)[C@H](CCCCN)NC(=O)[C@H](CC(C)C)NC(=O)[C@H](Cc1c[nH]c2ccccc12)NC(=O)[C@H](Cc1ccccc1)NC(=O)[C@@H](NC(=O)[C@H](CCCCN)NC(=O)[C@H](CCCNC(=N)N)NC(=O)[C@H](Cc1ccccc1)NC(=O)[C@@H]1CCCN1C(=O)[C@@H](NC(=O)[C@H](Cc1ccccc1)NC(=O)CNC(=O)[C@@H]1CCCN1C(=O)[C@@H]1CCCN1C(=O)[C@@H](N)CCCNC(=N)N)[C@@H](C)O)[C@@H](C)CC)C(=O)N[C@@H](CC(=O)O)C(=O)N[C@@H](C)C(=O)N[C@@H](CC(C)C)C(N)=O [Giovian] (H-RPPGFTPFRKIFWLKLGKLIDAL-NH2)
concentrations at which the sample did not present cytotoxic effect (cytotoxic = 30% or more reduction in cell viability) [1]: lower than 0.0375 mg/ml
appearance of solubilized sample [2]: fully solubilized
cell relaxation (reduction of cell contractility, collagen disc volume) [3]: increase in cell relaxation
